Laboratory results taken from patent US20250230155A1 (Vanderbilt University, priority 2021, published 2025).

Molecular target: T1, human mAChR M4 (Homo sapiens, UniProt P08173)
T1 construct: expressed in transfected cells
T1 sequence (P08173 1-479): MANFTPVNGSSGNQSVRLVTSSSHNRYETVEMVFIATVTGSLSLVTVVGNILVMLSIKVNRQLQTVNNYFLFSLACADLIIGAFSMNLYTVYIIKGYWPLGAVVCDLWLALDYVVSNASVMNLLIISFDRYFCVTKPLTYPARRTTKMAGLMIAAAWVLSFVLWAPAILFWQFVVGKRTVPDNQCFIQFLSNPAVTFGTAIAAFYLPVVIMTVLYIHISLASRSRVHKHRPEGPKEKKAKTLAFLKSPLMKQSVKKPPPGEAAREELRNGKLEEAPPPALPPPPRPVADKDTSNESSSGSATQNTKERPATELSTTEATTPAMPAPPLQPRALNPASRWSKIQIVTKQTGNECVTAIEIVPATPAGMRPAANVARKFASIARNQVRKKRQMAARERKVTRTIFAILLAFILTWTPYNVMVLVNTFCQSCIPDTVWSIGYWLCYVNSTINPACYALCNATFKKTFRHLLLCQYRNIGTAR
Experiment: mAChR M4 cell-based functional assay (calcium mobilization, CHO-K1 hM4-Gqi5 cells)
Details: for Emax: CHO-K1; for EC50: positive allosteric modulator activity, increase in the EC20 acetylcholine response, CHO-K1 hM4-Gqi5 cells, read-out: Human M4 EC50; for Emax at 30 µM: CHO-K1, % ACh maximum at 30 μM, human M4
In short: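 CHO-K1 cells stably expressing human M4 with chimeric Gqi5, loaded with Fluo-4 AM; compounds given as 11-point 1:3 curves and calcium flux read on FDSS at 1 Hz. Acetylcholine EC20 added at 144 s, EC80 at 230 s; agonist, PAM (EC20 potentiation) and antagonist (EC80 inhibition) EC50/Emax from four-parameter fits.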

Row | SMILES | EC50 [µM] | Emax at 30 µM [%] | Emax [%]
1 | Cc1cnc2c(c1)CN(c1nc(C)nc(Cl)c1C)CC2 [compound 209, 6-(6-chloro-2,5-dimethyl-pyrimidin-4-yl)-3-methyl-7,8-dihydro-5H-1,6-naphthyridine] | 0.17 |  | 95
2 | Cc1noc(C)c1-c1cnc2c(c1)CN(c1nnc(C#N)c(C)c1C)CC2 [Example 297, 6-(3-(3,5-dimethylisoxazol-4-yl)-7,8-dihydro-1,6-naphthyridin-6(5H)-yl)-4,5-dimethylpyridazine-3-carbonitrile] | 0.267 | 83 | 
3 | Cc1cc(Nc2cnc3c(c2)CN(c2nnc(C#N)cc2C)CC3)c(F)cn1 [Example 615, 6-(3-((5-fluoro-2-methylpyridin-4-yl)amino)-7,8-dihydro-1,6-naphthyridin-6(5H)-yl)-5-methylpyridazine-3-carbonitrile] | 0.011 | 89 | 
4 | Cc1ccccc1Nc1cnc2c(c1)CN(c1nnc(C#N)c(C)c1C)CC2 [compound 42, 4,5-dimethyl-6-[3-(2-methylanilino)-7,8-dihydro-5H-1,6-naphthyridin-6-yl]pyridazine-3-carbonitrile] | 0.483 | 80 | 
5 | Cc1cc(C#N)cnc1N1CCc2ncc(N3CCOC(c4ccccn4)C3)cc2C1 (stereo not shown) [Example 387, 5-methyl-6-(3-(2-(pyridin-2-yl)morpholino)-7,8-dihydro-1,6-naphthyridin-6(5H)-yl)nicotinonitrile] | 0.861 | 71 | 
6 | Cc1nc(C)c(C)c(N2CCc3ncc(-c4ccc(N5CCN(C)CC5)nc4)cc3C2)n1 [compound 233, 3-(6-(4-methylpiperazin-1-yl)pyridin-3-yl)-6-(2,5,6-trimethylpyrimidin-4-yl)-5,6,7,8-tetrahydro-1,6-naphthyridine] | 0.366 | 80 | 
7 | Cc1cc(C#N)nnc1N1CCc2ncc(N3CCCn4nccc43)cc2C1 [Example 360, 6-(3-(6,7-dihydropyrazolo[1,5-a]pyrimidin-4(5H)-yl)-7,8-dihydro-1,6-naphthyridin-6(5H)-yl)-5-methylpyridazine-3-carbonitrile] | 0.088 | 129 | 
8 | Cc1nn(C)c(C)c1-c1cnc2c(c1)CN(c1nnc(C#N)c(C)c1C)CC2 [Example 296, 4,5-dimethyl-6-(3-(1,3,5-trimethyl-1H-pyrazol-4-yl)-7,8-dihydro-1,6-naphthyridin-6(5H)-yl)pyridazine-3-carbonitrile] | 0.191 | 101 | 
9 | [2H]C1([2H])N(c2cnc3c(c2)CN(c2ncc(C#N)cc2C)CC3)c2ccnn2C([2H])([2H])C1([2H])[2H] [Example 417, 6-(3-(6,7-dihydropyrazolo[1,5-a]pyrimidin-4(5H)-yl-5,5,6,6,7,7-d6)-7,8-dihydro-1,6-naphthyridin-6(5H)-yl)-5-methylnicotinonitrile] | 0.024 | 110 | 
10 | Cc1c(C#N)nnc(N2CCc3ncc(N4CC(C)Cn5nccc54)cc3C2)c1C (stereo not shown) [Example 374, 4,5-dimethyl-6-(3-(6-methyl-6,7-dihydropyrazolo[1,5-a]pyrimidin-4(5H)-yl)-7,8-dihydro-1,6-naphthyridin-6(5H)-yl)pyridazine-3-carbonitrile] | 0.248 | 96 | 
11 | Cc1cc(C#N)nnc1N1CCc2ncc(-c3cn(C)nc3C)cc2C1 [Example 323, 6-(3-(1,3-dimethyl-1H-pyrazol-4-yl)-7,8-dihydro-1,6-naphthyridin-6(5H)-yl)-5-methylpyridazine-3-carbonitrile] | 0.764 | 86 | 
12 | Cc1cnc2c(c1)CN(c1nnc(C#N)cc1C)CC2 [Example 305, 5-methyl-6-(3-methyl-7,8-dihydro-1,6-naphthyridin-6(5H)-yl)pyridazine-3-carbonitrile] | 0.537 |  | 105
13 | Cc1cc(C#N)cnc1N1CCc2ncc(N3CCCn4nc(C(F)(F)F)cc43)cc2C1 [Example 412, 5-methyl-6-(3-(2-(trifluoromethyl)-6,7-dihydropyrazolo[1,5-a]pyrimidin-4(5H)-yl)-7,8-dihydro-1,6-naphthyridin-6(5H)-yl)nicotinonitrile] | 0.306 | 62 | 
14 | Cc1cc(C(=O)NCc2cncs2)nnc1N1CCc2ncc(C(F)(F)F)cc2C1 [Example 492, 5-methyl-N-(thiazol-5-ylmethyl)-6-(3-(trifluoromethyl)-7,8-dihydro-1,6-naphthyridin-6(5H)-yl)pyridazine-3-carboxamide] | 0.017 | 110 | 
15 | Cc1c(C#N)nnc(N2CCc3ncc(-c4cncnc4)cc3C2)c1C [compound 49, 4,5-dimethyl-6-(3-pyrimidin-5-yl-7,8-dihydro-5H-1,6-naphthyridin-6-yl)pyridazine-3-carbonitrile] | 0.868 | 60 | 
16 | Cc1cc(C#N)cnc1N1CCc2ncc(N3CCCn4nc(C(C)(C)C)cc43)cc2C1 [Example 414, 6-(3-(2-(tert-butyl)-6,7-dihydropyrazolo[1,5-a]pyrimidin-4(5H)-yl)-7,8-dihydro-1,6-naphthyridin-6(5H)-yl)-5-methylnicotinonitrile] | 0.739 | 65 | 
17 | Cc1nc(Cl)c(C)c(N2Cc3cc(N4CCCn5nccc54)cnc3C(C)(C)C2)n1 [compound 250, 6-(6-chloro-2,5-dimethylpyrimidin-4-yl)-3-(6,7-dihydropyrazolo[1,5-a]pyrimidin-4(5H)-yl)-8,8-dimethyl-5,6,7,8-tetrahydro-1,6-naphthyridine] | 0.616 | 66 | 
18 | Cc1c(C#N)nnc(N2CCc3ncc(-c4cc(F)cnc4Cl)cc3C2)c1C [compound 53, 6-[3-(2-chloro-5-fluoro-3-pyridyl)-7,8-dihydro-5H-1,6-naphthyridin-6-yl]-4,5-dimethyl-pyridazine-3-carbonitrile] | 0.479 | 70 | 

Continued, in another order:

Row | EC50 [µM] | Emax at 30 µM [%] | SMILES | Emax [%]
19 | 1.15 | 74 | Cc1cc(C(=O)NCc2csc3ccccc23)cnc1N1CCc2ncccc2C1 [compound 128, N-(benzothiophen-3-ylmethyl)-6-(7,8-dihydro-5H-1,6-naphthyridin-6-yl)-5-methyl-pyridine-3-carboxamide] | 
20 | 0.101 | 91 | Cc1cc(F)ncc1-c1cnc2c(c1)CN(c1ncc(C(=O)NCc3ccncc3)cc1C)CC2 [compound 177, 6-[3-(6-fluoro-4-methyl-3-pyridyl)-7,8-dihydro-5H-1,6-naphthyridin-6-yl]-5-methyl-N-(4-pyridylmethyl)pyridine-3-carboxamide] | 
21 | 4.31 | 62 | Cc1cc(C#N)cnc1N1CCc2ncc(N3CCO[C@@H](c4ccccc4)C3)cc2C1 [Example 378, (S)-5-methyl-6-(3-(2-phenylmorpholino)-7,8-dihydro-1,6-naphthyridin-6(5H)-yl)nicotinonitrile] | 
22 | 0.166 | 91 | Cc1cc(C(=O)N2CCC2c2ccccc2)nnc1N1CCc2ncc(N3CCCn4nccc43)cc2C1 (stereo not shown) [Example 557, (6-(3-(6,7-dihydropyrazolo[1,5-a]pyrimidin-4(5H)-yl)-7,8-dihydro-1,6-naphthyridin-6(5H)-yl)-5-methylpyridazin-3-yl)(2-phenylazetidin-1-yl)methanone] | 
23 | ≥ 10 | 52 | Cc1cc(C(=O)NC2CCCC2)cnc1N1CCc2ncccc2C1 [compound 65, N-cyclopentyl-6-(7,8-dihydro-5H-1,6-naphthyridin-6-yl)-5-methyl-pyridine-3-carboxamide] | 
24 | ≥ 10 | 56 | Cc1cc(C(=O)NCc2ncc(Cl)cn2)cnc1N1CCc2ncccc2C1 [compound 146, N-[(5-chloropyrimidin-2-yl)methyl]-6-(7,8-dihydro-5H-1,6-naphthyridin-6-yl)-5-methyl-pyridine-3-carboxamide] | 
25 | 0.424 | 63 | Cc1c(C#N)nnc(N2CCc3ncc(Cc4ccccc4F)cc3C2)c1C [Example 369, 6-(3-(2-fluorobenzyl)-7,8-dihydro-1,6-naphthyridin-6(5H)-yl)-4,5-dimethylpyridazine-3-carbonitrile] | 
26 | 2.52 | 57 | Cc1cc(C#N)cnc1N1CCc2ncc(OCCOc3ccccc3F)cc2C1 [Example 429, 6-(3-(2-(2-fluorophenoxy)ethoxy)-7,8-dihydro-1,6-naphthyridin-6(5H)-yl)-5-methylnicotinonitrile] | 
27 | 0.313 | 84 | Cc1cc(C(=O)NCc2ccncc2)cnc1N1CCc2ncc(-c3ccc(C4CC4)nc3)cc2C1 [Example 483, 6-(3-(6-cyclopropylpyridin-3-yl)-7,8-dihydro-1,6-naphthyridin-6(5H)-yl)-5-methyl-N-(pyridin-4-ylmethyl)nicotinamide] | 
28 | 3.64 | 68 | Cc1cc(C(=O)NCc2ccc3c(c2)n(C)c(=O)n3C)cnc1N1CCc2ncccc2C1 [compound 158, 6-(7,8-dihydro-5H-1,6-naphthyridin-6-yl)-N-[(1,3-dimethyl-2-oxo-benzimidazol-5-yl)methyl]-5-methyl-pyridine-3-carboxamide] | 
29 | 9.08 | 63 | Cc1cc(C(=O)NCCc2ccncc2)cnc1N1CCc2ncccc2C1 [compound 126, 6-(7,8-dihydro-5H-1,6-naphthyridin-6-yl)-5-methyl-N-[2-(4-pyridyl)ethyl]pyridine-3-carboxamide] | 
